Patent US20210130401A1, “PEPTIDOMIMETIC INHIBITORS OF THE WDR5-MLL INTERACTION” (THE REGENTS OF THE UNIVERSITY OF MICHIGAN, priority 2017, published 2021)
Like-named read-outs stand apart in the source and are kept apart here. Starred links: 1 amine or outer side, 2 acyl side, 3 side chain; linkers in the order of their positions; H or OH if unused. Positions of bridges follow the written chain, without caps; N, C: chain ends. Non-standard residues stand in square brackets, D forms with d. Residues, ends and D or L forms follow the SMILES beside them. *: point of attachment. dαMeDab = C[C@](CCN[*:3])(N[*:1])C(=O)[*:2]; Arg(Me) = CNC(=N)NCCC[C@H](N)C(=O)O; dPhg = N[C@@H](C(=O)O)c1ccccc1; dDab = NCC[C@@H](N)C(=O)O; Isobutyryl = CC(C)C(=O)*; Abu = CC[C@H](N)C(=O)O

Experiments:
[1] = test system: MV4;11 leukemia cells carrying MLL-AF4 fusion; assay: cell viability assay (WST-8), MV4;11; type: cell-based; conditions: Homo sapiens, MV4-11, 96 h, read-out: Cell Growth Inhibition IC50 (μM) MV-4-11
Protocol: To assess cell viability, MOLM-13 leukemia cells carrying MLL-AF9 fusion, MV4;11 leukemia cells carrying MLL-AF4 fusion or HL-60 leukemia cells carrying no MLL fusion were seeded 1×10^4 cell/well in 96-well plates and treated with an inhibitor for 4 days at different concentrations, in culture media containing 0.2% DMSO as the final concentration. Cell viability was determined using the WST-8 cell proliferation assay kit (Dojindo Molecular Technologies) according to manufacturer's instructions. Three independent experiments in triplicates were performed.

MLL4 = assay: HMT assay, SET1 family specificity; type: biochemical; conditions: up to 100 μM; data not shown
Protocol: (§1) The specificity of Cpd. No. 5 was tested against MLL and other SET1 family members (MLL2, MLL3, MLL4, SET1a and SET1b) using the previously published HMT assays (Karatas et al., J. Med. Chem. 53:5179-5185 (2010)). Cpd.

SET1b = SET1b (Homo sapiens, UniProt Q9UPS6); assay: HMT assay, SET1 family specificity; type: biochemical; conditions: up to 100 μM; data not shown
Protocol: as §1

MLL2 = assay: HMT assay, SET1 family specificity; type: biochemical; conditions: up to 100 μM; data not shown
Protocol: as §1

MLL3 = MLL3 (Homo sapiens, UniProt Q8NEZ4); assay: HMT assay, SET1 family specificity; type: biochemical; conditions: up to 100 μM; data not shown
Protocol: as §1

SET1a = SET1a (Homo sapiens, UniProt O15047); assay: HMT assay, SET1 family specificity; type: biochemical; conditions: up to 100 μM; data not shown
Protocol: as §1

[2] = stability in cell culture media; type: physicochemical; conditions: up to 7 days; data not shown
Protocol: To assess the effect of long-term treatment of compound Cpd. No. 5 on leukemia cells, MOLM-13 and MV4;11 cell lines were plated at a density of 5×10^4 cell/ml in 24-well plates (2 ml/well), and treated with the relevant concentrations. On day 4, cell viability for each treatment was measured using the WST-8 cell count kit. Then 10% of viable cells from each well were transferred to freshly prepared medium containing corresponding concentrations of compound Cpd. No. 5 and cultured for additional 3 days. On day 7, cell viability for each treatment was determined. In this experiment, 100,000 cells were seeded in each well in 24-well plates, whereas the cell growth inhibition data obtained for Cpd. No. 64 in Table 2 was obtained by seeding 10,000 cells in 96-well plates. Additionally, Cpd. No. 5 is stable in cell culture media up to 7 days (data not shown).

[3] = test system: MOLM-13 leukemia cells carrying MLL-AF9 fusion; assay: cell viability assay (WST-8), MOLM-13; type: cell-based; conditions: Homo sapiens, MOLM-13, 96 h, read-out: Cell Growth Inhibition IC50 (μM) MOLM-13
[4] = test system: HL-60 leukemia cells carrying no MLL fusion; assay: cell viability assay (WST-8), HL-60; type: cell-based; conditions: for IC50: read-out: Cell Growth Inhibition IC50 (μM) HL-60
Protocol: Cell viability was determined using the WST-8 cell proliferation assay kit (Dojindo Molecular Technologies) according to manufacturer's instructions. Three independent experiments in triplicates were performed.

WDR5 = target: T1, WDR5 (Homo sapiens, UniProt P61964); assay: fluorescence polarization (FP) based competitive binding assay to WDR5 protein
T1 construct: N-terminal His-tagged WDR5 protein (residues 24-334), named WDR5Δ23; made in house; host or cells: E. coli Rosetta 2 (DE3)
Protocol: The plates were incubated at room temperature on a shaker for 3h, and then the mP values were measured using the Tecan Infinite M-1000 plate reader (Tecan U.S., Research Triangle Park, N.C.).

MLL complex = target: T2, MLL complex (Homo sapiens, UniProt P61964); assay: AlphaLISA MLL HMT functional assay (cell-free); type: biochemical; conditions: read-out: Inhibition of MLL HMT Activity IC50 ± SD
T2 construct: full length human WDR5 with N-terminal 6×His tag; purchased Activmotif (Carlsbad, Calif.)
From the text: To avoid multiple wash and transfer steps, an amplified luminescent proximity homogeneous assay (AlphaLISA) was developed and optimized to evaluate the MLL HMT inhibitory activities of the Compounds of the Disclosure.
In this assay, recombinant nucleosomes are initially treated with the MLL complex for methylation in the presence of S-Adenosyl methionine (SAM) as cofactor before stopping the reaction with high salt buffer. Then, anti-H3K4Mel/2 antibody, which is covalently linked to acceptor beads, and biotinylated anti-H3 (C-terminus) antibody were added.
Anti-Histone H3 Lysine 4 (H3K4mel-2) AlphaLISA acceptor beads, AlphaScreen Streptavidin donor beads and biotinylated anti-H3 (C-terminus) antibody were obtained from PerkinElmer Life Sciences (Waltham, Mass.). 2.5 μl of compound serial dilutions in assay buffer with 4% DMSO and 5 μl of pentameric MLL complex solution were added into a white low volume 384 well microtiter plate which was incubated for 30 minutes with gentle shaking at room temperature, followed by adding 2.5 μl of SAM/Nucleosome mixture. The methylation reaction was performed in 50 mM Tris, pH 8.5 with 1 mM DTT and 0.01% Tween-20 added right before the assay. Final concentrations of MLL complex, SAM, and nucleosomes were 5 nM, 200 nM, and 3 nM, respectively. Final DMSO in the reaction mixture was 1%. The reaction was allowed to perform for 120 minutes in dark with gentle shaking at room temperature. […] 5 μL of high salt stopping solution (50 mM Tris, pH 7.4 with 1 M NaCl, 0.1% Tween-20, and 0.3% poly-L-Lysine) was added to stop the methylation reactions for 15 minutes. 5 μl of 5× acceptor beads/biotinylated anti-H3 antibody mixture in detection buffer (50 mM Tris, pH 7.4 with 0.3 M NaCl, 0.1% Tween-20, and 0.001% poly-L-Lysine) was added, followed by 1 hour incubation at room temperature to allow full interaction between antibodies and methylated nucleosomes. Add 5 μL of 5× streptavidin donor beads in detection and incubate 30 minutes.

[5] = Homo sapiens, HL-60, 96 h, 4 days treatment
[6] = calculated from IC50 by published equation, read-out: Binding Affinity to WDR5 Ki ± SD
[7] = read-out: Binding Affinity to WDR5 IC50 ± SD

IC50 ([1]; 4 days treatment) [µM]	IC50 ([3]; 4 days treatment) [µM]	IC50 [4, 5] [µM]	Ki (WDR5; [6]) [µM]	IC50 (WDR5; [7]) [µM]	Compound	IC50 [1] [µM]	IC50 [3] [µM]	IC50 ([4]; Homo sapiens, HL-60, 96 h) [µM]	IC50 (MLL complex) [µM]	IC50 (WDR5) [µM]	Ki (WDR5) [µM]	further results
0.25	0.21	8.6	< 0.001	0.0009 ± 0.0002	CC[C@@H]1NC(=O)[C@H](CCCNC(=N)NC)NC(=O)[C@](C)(NC(=O)C(C)C)CCNC(=O)[C@@H](c2ccccc2)NC1=O [Cpd. No. 5, N-((3R,6S,9S,12R)-6-ethyl-12-methyl-9-(3-(3-methylguanidino)propyl)-2,5,8,11-tetraoxo-3-phenyl-1,4,7,10-tetraazacyclotetradecan-12-yl)isobutyramide] (Isobutyryl-[dαMeDab][Arg(Me)][Abu][dPhg]; lactam 1-C)	–	–	–	–	–	–	inhibition of the HMT activity of MLL4 (MLL4): no or a minimal effect; inhibition of the HMT activity of SET1b (SET1b): no or a minimal effect; inhibition of the HMT activity of MLL2 (MLL2): no or a minimal effect; inhibition of the HMT activity of MLL3 (MLL3): no or a minimal effect; inhibition of the HMT activity of SET1a (SET1a): no or a minimal effect; stability in cell culture media [2]: stable; IC50 ([4]; 4 days treatment): 8.56 ± 1.14 µM; selectivity for the MV4;11 and MOLM-13 cell lines harboring MLL translocations over the HL-60 cell line ([4]; cell growth inhibition IC50 ratio): > 30 fold; IC50 (WDR5; Table 3A, read-out: Binding Affinity to WDR5 IC50): 0.00213 µM; Ki (WDR5; Table 3A, read-out: Binding Affinity to WDR5 Ki): < 0.001 µM
–	–	–	–	–	CC[C@@H]1NC(=O)[C@H](CCCNC(=N)N)NC(=O)[C@](C)(NC(=O)C(C)C)CCCCCCCCNC(=O)[C@@H](c2ccccc2)NC1=O [Cpd. No. 77, N-((3R,6S,9S,12R)-6-ethyl-9-(3-guanidinopropyl)-12-methyl-2,5,8,11-tetraoxo-3-phenyl-1,4,7,10-tetraazacycloicosan-12-yl)isobutyramide]	7.5 ± 3	21.6 ± 4.8	> 100	0.744 ± 0.079	0.0013 ± 0.0002	< 0.001	–
–	–	–	–	–	CC[C@@H]1NC(=O)[C@H](CCCNC(=N)N)NC(=O)[C@](C)(NC(=O)C(C)C)CCCCCCNC(=O)[C@@H](c2ccccc2)NC1=O [Cpd. No. 76, N-((3R,6S,9S,12R)-6-ethyl-9-(3-guanidinopropyl)-12-methyl-2,5,8,11-tetraoxo-3-phenyl-1,4,7,10-tetraazacyclooctadecan-12-yl)isobutyramide]	3.2 ± 0.4	5.6 ± 0.7	29.7 ± 11.5	0.216 ± 0.088	0.001 ± 0.0002	< 0.001	–
43.4	42.8	> 100	0.0008 ± 0.0001	0.0062 ± 0.0005	CC[C@@H]1NC(=O)[C@H](CCCNC(=N)N)NC(=O)[C@H](NC(=O)C(C)C)CCNC(=O)[C@@H](c2ccccc2)NC1=O [Cpd. No. 1, N-((3R,6S,9S,12R)-6-ethyl-9-(3-guanidinopropyl)-2,5,8,11-tetraoxo-3-phenyl-1,4,7,10-tetraazacyclotetradecan-12-yl)isobutyramide] (Isobutyryl-[dDab]R[Abu][dPhg]; lactam 1-C)	–	–	–	0.0018 ± 0.0004	–	–	–
